Experimental data: PubChem BioAssay AID292 (DTP/NCI, 2004)
Several values for one entry are separate records, joined by “and”; a condition that tells them apart may be missing. Equal entries are not always repeated. Toxic doses and inconclusive results are not listed.

System: B6C3F1 mice, ip Sarcoma M5076, median survival T/C
Test: NCI In Vivo Anticancer Drug Screen. Data for tumor model Sarcoma M5076 (intraperitoneal) in B6C3F1 mice
Settings: endpoint: median survival time, higher = longer survival
Procedure: The antitumor activity of compounds was measured in mice bearing transplantable tumors. Survival or tumor size were measured and the results are expressed as the measurement made in the treated group (T) divided by the measurement made in the vehicle treated control group (C). The tumor model used in this assay is Sarcoma M5076 (intraperitoneal) in B6C3F1 mice

[1] = dose: 25.0 mg/kg/injection, schedule: Q04DX004 (ip), vehicle: water
[2] = dose: 50.0 mg/kg/injection, schedule: Q04DX004 (ip), vehicle: water
[3] = dose: 50.0 mg/kg/injection, schedule: Q04DX004 (ip), vehicle: Klucel (hydroxypropylcellulose) (HPC)
[4] = dose: 100.0 mg/kg/injection, schedule: Q04DX004 (ip), vehicle: Klucel (hydroxypropylcellulose) (HPC)
[5] = dose: 200.0 mg/kg/injection, schedule: Q04DX004 (ip), vehicle: Klucel (hydroxypropylcellulose) (HPC)
[6] = dose: 400.0 mg/kg/injection, schedule: Q04DX004 (ip), vehicle: Klucel (hydroxypropylcellulose) (HPC)
[7] = dose: 18.75 mg/kg/injection, schedule: Q04DX004 (ip), vehicle: saline with Tween-80
[8] = dose: 37.5 mg/kg/injection, schedule: Q04DX004 (ip), vehicle: saline with Tween-80
[9] = dose: 75.0 mg/kg/injection, schedule: Q04DX004 (ip), vehicle: saline with Tween-80
[10] = dose: 150.0 mg/kg/injection, schedule: Q04DX004 (ip), vehicle: saline with Tween-80
[11] = dose: 50.0 mg/kg/injection, schedule: Q04DX004 (ip), vehicle: saline with Tween-80
[12] = dose: 100.0 mg/kg/injection, schedule: Q04DX004 (ip), vehicle: saline with Tween-80
[13] = dose: 200.0 mg/kg/injection, schedule: Q04DX004 (ip), vehicle: saline with Tween-80
[14] = dose: 400.0 mg/kg/injection, schedule: Q04DX004 (ip), vehicle: saline with Tween-80
[15] = dose: 800.0 mg/kg/injection, schedule: Q04DX004 (ip), vehicle: saline with Tween-80

## Cn1cc(NC(=O)c2cc(NC(=O)c3cc(NC=O)cn3C)cn2C)cc1C(=O)NCCC(=N)N
dose: 12.5 mg/kg/injection, schedule: Q04DX004 (ip), vehicle: water
  T/C: 108 % of control
[1]
  T/C: 102 % of control
[2]
  T/C: 105 % of control
dose: 100.0 mg/kg/injection, schedule: Q04DX004 (ip), vehicle: water
  T/C: 99 % of control

## COc1ccc(CNC(=O)C2C(=O)C(=O)N(Cc3ccc(OC)c(OC)c3)C2=O)cc1OC (stereo not drawn)
dose: 28.13 mg/kg/injection, schedule: Q04DX004 (ip), vehicle: Klucel (hydroxypropylcellulose) (HPC)
  T/C: 95 % of control
dose: 56.25 mg/kg/injection, schedule: Q04DX004 (ip), vehicle: Klucel (hydroxypropylcellulose) (HPC)
  T/C: 100 % of control
dose: 112.5 mg/kg/injection, schedule: Q04DX004 (ip), vehicle: Klucel (hydroxypropylcellulose) (HPC)
  T/C: 97 % of control
dose: 225.0 mg/kg/injection, schedule: Q04DX004 (ip), vehicle: Klucel (hydroxypropylcellulose) (HPC)
  T/C: 94 % of control
dose: 450.0 mg/kg/injection, schedule: Q04DX004 (ip), vehicle: Klucel (hydroxypropylcellulose) (HPC)
  T/C: 92 % of control

## Nc1nc2c(ncn2C2CC3[O][Sn]([c]4ccccc4)([c]4ccccc4)[O]CC3O2)c(=O)[nH]1 (stereo not drawn)
dose: 25.0 mg/kg/injection, schedule: Q04DX004 (ip), vehicle: distilled water + Tween-80
  T/C: 99 % of control
dose: 50.0 mg/kg/injection, schedule: Q04DX004 (ip), vehicle: distilled water + Tween-80
  T/C: 90 % of control
dose: 100.0 mg/kg/injection, schedule: Q04DX004 (ip), vehicle: distilled water + Tween-80
  T/C: 88 % of control
dose: 200.0 mg/kg/injection, schedule: Q04DX004 (ip), vehicle: distilled water + Tween-80
  T/C: 92 % of control

## O=C1N(CCN2CCC3(CC2)OCCO3)CCN1c1cc(Cl)cc(Cl)c1
[1]
  T/C: 104 % of control
[2]
  T/C: 102 % of control

## COc1cccc(C2C(C#N)C(=O)NC(=O)C2C#N)c1 (stereo not drawn)
[3]
  T/C: 99 % of control
[4]
  T/C: 102 % of control
[5]
  T/C: 98 % of control
[6]
  T/C: 95 % of control

## N=C(N)Sc1ccccn1
dose: 62.5 mg/kg/injection, schedule: Q04DX004 (ip), vehicle: saline
  T/C: 97 % of control
dose: 125.0 mg/kg/injection, schedule: Q04DX004 (ip), vehicle: saline
  T/C: 101 % of control
dose: 250.0 mg/kg/injection, schedule: Q04DX004 (ip), vehicle: saline
  T/C: 90 % of control

## Cc1ccc(C)c(NC(=O)C2C(=O)C(=O)N(c3cc(C)ccc3C)C2=O)c1 (stereo not drawn)
[3]
  T/C: 102 % of control
[4]
  T/C: 100 % of control
[5]
  T/C: 108 % of control
[6]
  T/C: 105 % of control

## O=c1c(O)c(O)c1=O.[NH2-].[NH2-].[NH2-].[NH2-].[NH2-].[Ru+5]
dose: 6.25 mg/kg/injection, schedule: Q04DX004 (ip), vehicle: suspension in saline
  T/C: 98 % of control
dose: 12.5 mg/kg/injection, schedule: Q04DX004 (ip), vehicle: suspension in saline
  T/C: 97 % of control
dose: 25.0 mg/kg/injection, schedule: Q04DX004 (ip), vehicle: suspension in saline
  T/C: 98 % of control

## NC(=O)c1ccc[n+](Cc2c(Cl)cccc2Cl)c1
dose: 12.5 mg/kg/injection, schedule: Q04DX004 (ip), vehicle: saline
  T/C: 100 % of control
dose: 25.0 mg/kg/injection, schedule: Q04DX004 (ip), vehicle: saline
  T/C: 99 % of control
dose: 50.0 mg/kg/injection, schedule: Q04DX004 (ip), vehicle: saline
  T/C: 100 % of control
dose: 100.0 mg/kg/injection, schedule: Q04DX004 (ip), vehicle: saline
  T/C: 96 % of control

## N#CC1C(=O)NC(=O)C(C#N)C1C(Cl)(Cl)Cl (stereo not drawn)
[3]
  T/C: 94 % of control
[4]
  T/C: 95 % of control

## CN1c2ccccc2C(=O)N2C(=O)CCC21C (stereo not drawn)
[7]
  T/C: 100 % of control
[8]
  T/C: 100 % of control
[9]
  T/C: 102 % of control
[10]
  T/C: 101 % of control

## CNc1ncn(-c2c(C)cccc2C)c(=O)n1
dose: 4.69 mg/kg/injection, schedule: Q04DX004 (ip), vehicle: saline with Tween-80
  T/C: 98 % of control
dose: 9.38 mg/kg/injection, schedule: Q04DX004 (ip), vehicle: saline with Tween-80
  T/C: 109 % of control
[7]
  T/C: 110 % of control
[8]
  T/C: 109 % of control
[9]
  T/C: 100 % of control and 105 % of control and 115 % of control
[10]
  T/C: 99 % of control
dose: 300.0 mg/kg/injection, schedule: Q04DX004 (ip), vehicle: saline with Tween-80
  T/C: 100 % of control
dose: 600.0 mg/kg/injection, schedule: Q04DX004 (ip), vehicle: saline with Tween-80
  T/C: 99 % of control

## CCc1c(C)c(SC)n(C)c(=O)c1C#N
[11]
  T/C: 111 % of control
[12]
  T/C: 111 % of control
[13]
  T/C: 111 % of control
[14]
  T/C: 96 % of control

## CO[C@@H]1C2=CC=CC=C[C@H]2n2c(=O)n(C)c(=O)n21
dose: 37.5 mg/kg/injection, schedule: Q04DX004 (ip), vehicle: other
  T/C: 104 % of control
dose: 75.0 mg/kg/injection, schedule: Q04DX004 (ip), vehicle: other
  T/C: 100 % of control
dose: 150.0 mg/kg/injection, schedule: Q04DX004 (ip), vehicle: other
  T/C: 100 % of control
dose: 300.0 mg/kg/injection, schedule: Q04DX004 (ip), vehicle: other
  T/C: 104 % of control

## Nc1ccc2c(c1)C1(CCC2)NC(=O)NC1=O (stereo not drawn)
[11]
  T/C: 97 % of control
[12]
  T/C: 96 % of control
[13]
  T/C: 98 % of control
[14]
  T/C: 98 % of control

## O=C1CCC(=O)N1CO
[11]
  T/C: 93 % of control
[12]
  T/C: 101 % of control
[13]
  T/C: 87 % of control
[14]
  T/C: 100 % of control
[15]
  T/C: 97 % of control

## O=c1[nH]c(=O)n(C2CC(O)C(CO)O2)cc1C(F)(F)F (stereo not drawn)
[12]
  T/C: 113 % of control and 114 % of control
[13]
  T/C: 109 % of control and 113 % of control
[14]
  T/C: 110 % of control and 112 % of control
[15]
  T/C: 116 % of control
dose: 1600.0 mg/kg/injection, schedule: Q04DX004 (ip), vehicle: saline with Tween-80
  T/C: 116 % of control

## COc1ccc(C2NC(=S)NC(=O)C2C#N)cc1OC (stereo not drawn)
[3]
  T/C: 95 % of control
[4]
  T/C: 100 % of control
[5]
  T/C: 106 % of control
[6]
  T/C: 105 % of control

## Cc1ccc(/C=C2/N=C([Se])N(C)C2=O)cc1
[8]
  T/C: 124 % of control
[9]
  T/C: 98 % of control
[10]
  T/C: 89 % of control

## C=C(C)C1C2CC3(C)C4(CO4)C4OC4C3(O)C1C(=O)O2 (stereo not drawn)
dose: 0.25 mg/kg/injection, schedule: Q04DX004 (ip), vehicle: Klucel (hydroxypropylcellulose) (HPC)
  T/C: 96 % of control
dose: 0.5 mg/kg/injection, schedule: Q04DX004 (ip), vehicle: Klucel (hydroxypropylcellulose) (HPC)
  T/C: 112 % of control
dose: 1.0 mg/kg/injection, schedule: Q04DX004 (ip), vehicle: Klucel (hydroxypropylcellulose) (HPC)
  T/C: 100 % of control

## NC(N)=NS(=O)(=O)c1ccc(NCc2c3ccccc3nc3ccccc23)cc1
[3]
  T/C: 159 % of control
[4]
  T/C: 151 % of control
[5]
  T/C: 178 % of control
[6]
  T/C: 158 % of control and 207 % of control
dose: 800.0 mg/kg/injection, schedule: Q04DX004 (ip), vehicle: Klucel (hydroxypropylcellulose) (HPC)
  T/C: 167 % of control and 194 % of control

## OC(C1CO1)C(O)C1CO1 (stereo not drawn)
dose: 1.0 mg/kg/injection, schedule: Q04DX005 (ip), vehicle: saline
  T/C: 123 % of control
dose: 2.0 mg/kg/injection, schedule: Q04DX005 (ip), vehicle: saline
  T/C: 169 % of control
dose: 4.0 mg/kg/injection, schedule: Q04DX005 (ip), vehicle: saline
  T/C: 287 % of control
dose: 8.0 mg/kg/injection, schedule: Q04DX005 (ip), vehicle: saline
  T/C: 319 % of control

## COC1C(CO)OC(n2cnc3c(=S)nc(N)[nH]c32)C1O (stereo not drawn)
[3]
  T/C: 93 % of control
[4]
  T/C: 100 % of control
[5]
  T/C: 105 % of control

## CS(=O)(=O)OCCCNCCCOS(C)(=O)=O
dose: 10.0 mg/kg/injection, schedule: Q04DX005 (ip), vehicle: saline
  T/C: 150 % of control
dose: 20.0 mg/kg/injection, schedule: Q04DX005 (ip), vehicle: saline
  T/C: 185 % of control
dose: 40.0 mg/kg/injection, schedule: Q04DX005 (ip), vehicle: saline
  T/C: 319 % of control
dose: 80.0 mg/kg/injection, schedule: Q04DX005 (ip), vehicle: saline
  T/C: 319 % of control

## CCOc1cc2c(cc1C(C)c1ccc(OC)cc1)OCO2 (stereo not drawn)
dose: 50.0 mg/kg/injection, schedule: Q04DX004 (ip), vehicle: distilled water + alcohol
  T/C: 119 % of control
dose: 100.0 mg/kg/injection, schedule: Q04DX004 (ip), vehicle: distilled water + alcohol
  T/C: 110 % of control
dose: 200.0 mg/kg/injection, schedule: Q04DX004 (ip), vehicle: distilled water + alcohol
  T/C: 123 % of control
